Data as given in ChEMBL document CHEMBL3991601, “The target landscape of clinical kinase drugs” (Science, 2017).
Active and inactive are the calls of the source.

Key:
[1] = target: T1, Serine/threonine-protein kinase D2 (Homo sapiens, UniProt Q9BZL6)
T1 sequence (Q9BZL6 whole entry): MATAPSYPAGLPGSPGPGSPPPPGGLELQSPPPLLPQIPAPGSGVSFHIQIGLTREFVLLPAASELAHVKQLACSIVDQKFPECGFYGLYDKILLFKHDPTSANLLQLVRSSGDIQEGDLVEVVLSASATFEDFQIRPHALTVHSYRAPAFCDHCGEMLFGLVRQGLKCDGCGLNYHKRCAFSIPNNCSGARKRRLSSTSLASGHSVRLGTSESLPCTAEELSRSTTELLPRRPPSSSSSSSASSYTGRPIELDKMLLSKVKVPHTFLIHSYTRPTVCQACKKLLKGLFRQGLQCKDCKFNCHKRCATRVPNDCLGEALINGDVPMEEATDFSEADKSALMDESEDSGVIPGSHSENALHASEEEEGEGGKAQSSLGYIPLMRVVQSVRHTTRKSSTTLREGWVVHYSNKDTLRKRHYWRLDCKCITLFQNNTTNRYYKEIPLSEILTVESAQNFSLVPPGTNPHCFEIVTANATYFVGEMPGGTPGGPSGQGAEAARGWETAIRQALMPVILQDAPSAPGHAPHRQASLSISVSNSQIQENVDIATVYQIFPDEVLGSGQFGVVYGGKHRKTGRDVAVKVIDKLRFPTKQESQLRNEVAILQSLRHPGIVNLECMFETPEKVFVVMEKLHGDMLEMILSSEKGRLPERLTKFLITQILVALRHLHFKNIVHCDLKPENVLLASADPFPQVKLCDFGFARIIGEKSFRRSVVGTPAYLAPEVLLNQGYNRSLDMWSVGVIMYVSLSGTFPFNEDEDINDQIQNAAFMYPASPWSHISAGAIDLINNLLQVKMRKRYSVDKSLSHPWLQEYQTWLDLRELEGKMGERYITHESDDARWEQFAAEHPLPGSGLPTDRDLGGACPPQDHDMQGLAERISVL

[2] = target: T2, Structural maintenance of chromosomes protein 1A (Homo sapiens, UniProt Q14683)
T2 sequence (Q14683 whole entry): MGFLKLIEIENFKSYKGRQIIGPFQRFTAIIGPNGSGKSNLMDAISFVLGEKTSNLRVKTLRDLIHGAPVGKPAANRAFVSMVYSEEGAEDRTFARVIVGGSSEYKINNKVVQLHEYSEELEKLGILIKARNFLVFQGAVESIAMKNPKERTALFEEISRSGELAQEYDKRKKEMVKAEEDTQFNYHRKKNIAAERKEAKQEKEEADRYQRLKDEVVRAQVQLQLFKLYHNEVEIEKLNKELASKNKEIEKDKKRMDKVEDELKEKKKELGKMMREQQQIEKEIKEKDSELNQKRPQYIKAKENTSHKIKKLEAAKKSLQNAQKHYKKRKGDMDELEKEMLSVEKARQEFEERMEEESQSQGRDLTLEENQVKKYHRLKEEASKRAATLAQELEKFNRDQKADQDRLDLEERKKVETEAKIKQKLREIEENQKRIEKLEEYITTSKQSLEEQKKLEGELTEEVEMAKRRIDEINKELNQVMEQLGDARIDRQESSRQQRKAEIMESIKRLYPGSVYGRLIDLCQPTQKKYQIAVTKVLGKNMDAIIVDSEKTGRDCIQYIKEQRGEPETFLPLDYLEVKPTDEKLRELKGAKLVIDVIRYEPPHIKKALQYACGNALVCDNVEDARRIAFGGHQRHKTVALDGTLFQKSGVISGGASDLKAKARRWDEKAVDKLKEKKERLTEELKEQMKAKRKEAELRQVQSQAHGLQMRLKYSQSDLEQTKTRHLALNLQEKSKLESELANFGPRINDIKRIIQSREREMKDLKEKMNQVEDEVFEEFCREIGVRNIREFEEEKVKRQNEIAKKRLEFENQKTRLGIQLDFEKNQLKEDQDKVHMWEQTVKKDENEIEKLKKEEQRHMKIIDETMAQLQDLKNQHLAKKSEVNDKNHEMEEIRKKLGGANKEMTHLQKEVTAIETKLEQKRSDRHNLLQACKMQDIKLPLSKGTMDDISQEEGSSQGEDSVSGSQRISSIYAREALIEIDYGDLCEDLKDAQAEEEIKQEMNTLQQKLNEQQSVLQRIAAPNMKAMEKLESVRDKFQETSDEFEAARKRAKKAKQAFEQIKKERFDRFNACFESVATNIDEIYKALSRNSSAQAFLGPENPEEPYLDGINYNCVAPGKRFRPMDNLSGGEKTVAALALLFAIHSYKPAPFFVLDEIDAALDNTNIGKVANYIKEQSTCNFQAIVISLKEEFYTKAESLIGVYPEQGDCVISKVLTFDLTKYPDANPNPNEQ

[3] = target: T3, cGMP-dependent protein kinase 1 (Homo sapiens, UniProt Q13976)
T3 sequence (Q13976 whole entry): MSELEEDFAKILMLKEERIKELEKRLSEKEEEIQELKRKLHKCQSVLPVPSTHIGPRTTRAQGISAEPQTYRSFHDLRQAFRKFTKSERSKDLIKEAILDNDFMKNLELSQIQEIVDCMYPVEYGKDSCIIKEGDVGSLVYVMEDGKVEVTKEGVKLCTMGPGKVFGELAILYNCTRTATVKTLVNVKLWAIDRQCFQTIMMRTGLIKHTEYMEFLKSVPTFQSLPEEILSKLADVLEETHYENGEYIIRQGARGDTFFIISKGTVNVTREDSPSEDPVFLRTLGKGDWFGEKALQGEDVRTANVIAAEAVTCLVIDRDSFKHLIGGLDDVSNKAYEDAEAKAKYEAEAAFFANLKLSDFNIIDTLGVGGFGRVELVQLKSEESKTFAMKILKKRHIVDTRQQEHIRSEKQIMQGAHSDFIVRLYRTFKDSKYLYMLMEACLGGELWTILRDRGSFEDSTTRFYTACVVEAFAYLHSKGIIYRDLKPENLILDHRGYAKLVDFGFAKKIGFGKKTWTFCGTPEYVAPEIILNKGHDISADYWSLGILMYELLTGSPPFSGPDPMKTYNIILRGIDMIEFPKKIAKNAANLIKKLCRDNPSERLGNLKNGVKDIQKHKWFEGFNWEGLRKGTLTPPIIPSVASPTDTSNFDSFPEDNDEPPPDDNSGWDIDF
Also: in the data inactive means no Kd found up to 30 µM.

| SMILES | Kd [1] | Kd [2] | Kd [3] |
| --- | --- | --- | --- |
| CN1N=C(N)c2cn([C@@H]3O[C@H](COP(=O)(O)O)[C@@H](O)[C@H]3O)c3ncnc1c23 [TRICIRIBINE PHOSPHATE] | > 30 µM (inactive) | > 30 µM (inactive) | > 30 µM (inactive) |
| CN1CCC(CNc2ccc3ncc(-c4cccc(OC(F)(F)F)c4)n3n2)CC1 [SGI-1776] | > 30 µM (inactive) | > 30 µM (inactive) | > 30 µM (inactive) |
| CC(C)Nc1cc(-c2c[nH]c(C(=O)N[C@H](CO)c3cccc(Cl)c3)c2)c(Cl)cn1 [ULIXERTINIB] | 6.34 µM (active) | > 30 µM (inactive) | > 30 µM (inactive) |
| CC[C@@H]1C(=O)N(C)c2cnc(Nc3ccc(C(=O)N[C@H]4CC[C@H](N5CCN(CC6CC6)CC5)CC4)cc3OC)nc2N1C(C)C [VOLASERTIB] | > 30 µM (inactive) | > 30 µM (inactive) | > 30 µM (inactive) |
| CN1CC[C@@H](c2c(O)cc(O)c3c(=O)cc(-c4ccccc4Cl)oc23)[C@@H]1CO | > 30 µM (inactive) | > 30 µM (inactive) | > 30 µM (inactive) |
| Cc1ccc(S(=O)(=O)Nc2nc3ccccc3nc2Nc2ccc3nsnc3c2)cc1 | > 30 µM (inactive) | > 30 µM (inactive) | > 30 µM (inactive) |
| COc1cc2nccc(Oc3ccc(NC(=O)NC4CC4)c(Cl)c3)c2cc1C(N)=O [LENVATINIB] | > 30 µM (inactive) | > 30 µM (inactive) | > 30 µM (inactive) |
| COC(=O)N[C@@H](C)CNc1nccc(-c2cn(C(C)C)nc2-c2cc(Cl)cc(NS(C)(=O)=O)c2F)n1 [ENCORAFENIB] | > 30 µM (inactive) | > 30 µM (inactive) | > 30 µM (inactive) |
| COCCNCc1ccc(-c2cc3nccc(Oc4ccc(NC(=S)NC(=O)Cc5ccc(F)cc5)cc4F)c3s2)nc1 [GLESATINIB] | > 30 µM (inactive) | > 30 µM (inactive) | > 30 µM (inactive) |
| CCS(=O)(=O)N1CC(CC#N)(n2cc(-c3ncnc4[nH]ccc34)cn2)C1 [BARICITINIB] | > 30 µM (inactive) | > 30 µM (inactive) | > 30 µM (inactive) |
| Cc1c(F)cc(C(=O)NC2CC2)cc1-c1ccc(C(=O)NCC(C)(C)C)cn1 [LOSMAPIMOD] | > 30 µM (inactive) | > 30 µM (inactive) | > 30 µM (inactive) |
| CO[C@H]1C[C@@H]2CC[C@@H](C)[C@@](O)(O2)C(=O)C(=O)N2CCCC[C@H]2C(=O)O[C@H]([C@H](C)C[C@@H]2CC[C@@H](OCCO)[C@H](OC)C2)CC(=O)[C@H](C)/C=C(\C)[C@@H](O)[C@@H](OC)C(=O)[C@H](C)C[C@H](C)/C=C/C=C/C=C/1C [EVEROLIMUS] | > 30 µM (inactive) | > 30 µM (inactive) | > 30 µM (inactive) |
| CCN1CCN(Cc2ccc(-c3cc4c(N[C@H](C)c5ccccc5)ncnc4[nH]3)cc2)CC1 [AEE-788] | > 30 µM (inactive) | > 30 µM (inactive) | > 30 µM (inactive) |
| CC(=O)Nc1cccc(-n2c(=O)n(C3CC3)c(=O)c3c(Nc4ccc(I)cc4F)n(C)c(=O)c(C)c32)c1 [TRAMETINIB] | > 30 µM (inactive) | > 30 µM (inactive) | > 30 µM (inactive) |
| O=C(O)[C@]1(Cc2cccc(Nc3nccs3)n2)CC[C@@H](Oc2cccc(Cl)c2F)CC1 [MK-5108] | > 30 µM (inactive) | > 30 µM (inactive) | > 30 µM (inactive) |
| C1=C/COCc2cc(ccc2OCCN2CCCC2)Nc2nccc(n2)-c2cccc(c2)COC/1 [PACRITINIB] | > 30 µM (inactive) | > 30 µM (inactive) | 1.52 µM (active) |
| N[C@@H]1CCCN(c2c(/C=C3\SC(=O)NC3=O)cccc2-c2ccccc2)C1 | > 30 µM (inactive) | > 30 µM (inactive) | > 30 µM (inactive) |
| Cc1ccc(NC(=O)c2ccc(CN3CC[C@H](N(C)C)C3)c(C(F)(F)F)c2)cc1Nc1nccc(-c2cncnc2)n1 [BAFETINIB] | > 30 µM (inactive) | > 30 µM (inactive) | > 30 µM (inactive) |
| O=C(Nc1ccc(-c2ccnc(Nc3ccc(N4CCOCC4)cc3)n2)cc1)C1CCCN1 (configuration not stated) [XL-019] | 66.9 µM (active) | > 30 µM (inactive) | > 30 µM (inactive) |
| O=C(c1ccc(F)c(F)c1Nc1ccc(I)cc1F)N1CC(O)([C@@H]2CCCCN2)C1 [COBIMETINIB] | > 30 µM (inactive) | > 30 µM (inactive) | > 30 µM (inactive) |
| C[C@@H]1CN(Cc2ccc(F)cc2)[C@@H](C)CN1C(=O)c1cc2c(C(=O)C(=O)N(C)C)cn(C)c2cc1Cl [TALMAPIMOD] | > 30 µM (inactive) | > 30 µM (inactive) | > 30 µM (inactive) |
| Cc1cc(-c2cc(O)ccc2Cl)cc2nnc(Nc3ccc(OCCN4CCCC4)cc3)nc12 | 0.003 µM (active) | > 30 µM (inactive) | > 30 µM (inactive) |
| COc1cc(CCc2cc(NC(=O)c3ccc(N4C[C@@H](C)N[C@@H](C)C4)cc3)n[nH]2)cc(OC)c1 [AZD-4547] | > 30 µM (inactive) | > 30 µM (inactive) | > 30 µM (inactive) |
| Cc1cc([C@@H](C)Nc2ccccc2C(=O)O)c2nc(N3CCOCC3)cc(=O)n2c1 [AZD-6482] | > 30 µM (inactive) | > 30 µM (inactive) | > 30 µM (inactive) |
